Laboratory results: US8030498B2, “Benzoylpyrazole compounds and herbicides containing them” (Ishihara Sangyo Kaisha, Ltd., priority 2005, dated 2011)

Assays:
[1] = system: crabgrass; assay: Test Example 2: soil application on the day after sowing, growth inhibition rate, crabgrass; format: in vivo, Digitaria sanguinalis L.; conditions: 250 g/ha active ingredient, observed on 19th to 24th day
Procedure, shortened: (§1)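 Pre-emergence soil treatment: one day post-sowing in upland soil, compound formulations at set active-ingredient rates were applied in 500 L/ha water. Visual rating of growth inhibition (0% untreated-equivalent to 100% complete kill) followed on days 19–24 after application.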

[2] = system: corn (Zea mays L.); assay: Test Example 1: foliar treatment, growth inhibition rate, corn; format: in vivo; conditions: 31 g/ha active ingredient, visually observed 17th to 23rd day after application
Procedure, shortened: (§2)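 Visual scoring of growth inhibition, 0% (untreated) to 100% (complete kill), on days 17–23 following post-emergence spray of formulated compound in water (500 L/ha, 0.1 vol % spreader); plants treated at set leaf stages, e.g. corn 2.0–3.5, wheat 1.7–3.4.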

[3] = system: prickly sida; assay: Test Example 2: soil application on the day after sowing, growth inhibition rate, prickly sida; format: in vivo, Sida spinosa L.; conditions: 250 g/ha active ingredient, observed on 19th to 24th day
Procedure, shortened: as §1

[4] = system: redroot pigweed (Amaranthus retroflexus L.); assay: Test Example 1: foliar treatment, growth inhibition rate, redroot pigweed; format: in vivo; conditions: 31 g/ha active ingredient, visually observed 17th to 23rd day after application
Procedure, shortened: as §2

[5] = system: rice; assay: Test Example 2: soil application on the day after sowing, growth inhibition rate, rice; format: in vivo, Oryza sativa L.; conditions: 250 g/ha active ingredient, observed on 19th to 24th day
Procedure, shortened: as §1

[6] = system: crabgrass (Digitaria sanguinalis L.); assay: Test Example 1: foliar treatment, growth inhibition rate, crabgrass; format: in vivo; conditions: 31 g/ha active ingredient, visually observed 17th to 23rd day after application
Procedure, shortened: as §2

[7] = system: velvetleaf; assay: Test Example 2: soil application on the day after sowing, growth inhibition rate, velvetleaf; format: in vivo, Abutilon theophrasti MEDIC.; conditions: 250 g/ha active ingredient, observed on 19th to 24th day
Procedure, shortened: as §1

[8] = system: barnyardgrass (Echinochloa crus-galli L.); assay: Test Example 1: foliar treatment, growth inhibition rate, barnyardgrass; format: in vivo; conditions: 31 g/ha active ingredient, visually observed 17th to 23rd day after application
Procedure, shortened: as §2

[9] = system: velvetleaf (Abutilon theophrasti MEDIC.); assay: Test Example 1: foliar treatment, growth inhibition rate, velvetleaf; format: in vivo; conditions: 31 g/ha active ingredient, visually observed 17th to 23rd day after application
Procedure, shortened: as §2

[10] = system: greenfoxtail; assay: Test Example 2: soil application on the day after sowing, growth inhibition rate, greenfoxtail; format: in vivo, Setaria viridis L.; conditions: 250 g/ha active ingredient, observed on 19th to 24th day
Procedure, shortened: as §1

[11] = system: corn; assay: Test Example 2: soil application on the day after sowing, growth inhibition rate, corn; format: in vivo, Zea mays L.; conditions: 250 g/ha active ingredient, observed on 19th to 24th day
Procedure, shortened: as §1

[12] = system: rice (Oryza sativa L.); assay: Test Example 1: foliar treatment, growth inhibition rate, rice; format: in vivo; conditions: 31 g/ha active ingredient, visually observed 17th to 23rd day after application
Procedure, shortened: as §2

[13] = system: greenfoxtail (Setaria viridis L.); assay: Test Example 1: foliar treatment, growth inhibition rate, greenfoxtail; format: in vivo; conditions: 31 g/ha active ingredient, visually observed 17th to 23rd day after application
Procedure, shortened: as §2

[14] = system: wheat (Triticum spp.); assay: Test Example 1: foliar treatment, growth inhibition rate, wheat; format: in vivo; conditions: 31 g/ha active ingredient, visually observed 17th to 23rd day after application
Procedure, shortened: as §2

[15] = system: redroot pigweed; assay: Test Example 2: soil application on the day after sowing, growth inhibition rate, redroot pigweed; format: in vivo, Amaranthus retroflexus L.; conditions: 250 g/ha active ingredient, observed on 19th to 24th day
Procedure, shortened: as §1

[16] = system: barnyardgrass; assay: Test Example 2: soil application on the day after sowing, growth inhibition rate, barnyardgrass; format: in vivo, Echinochloa crus-galli L.; conditions: 250 g/ha active ingredient, observed on 19th to 24th day
Procedure, shortened: as §1

[17] = system: soybean; assay: Test Example 2: soil application on the day after sowing, growth inhibition rate, soybean; format: in vivo, Glycine max Merr.; conditions: 250 g/ha active ingredient, observed on 19th to 24th day
Procedure, shortened: as §1

[18] = system: soybean (Glycine max Merr.); assay: Test Example 1: foliar treatment, growth inhibition rate, soybean; format: in vivo; conditions: 31 g/ha active ingredient, visually observed 17th to 23rd day after application
Procedure, shortened: as §2

[19] = system: wheat; assay: Test Example 2: soil application on the day after sowing, growth inhibition rate, wheat; format: in vivo, Triticum spp.; conditions: 250 g/ha active ingredient, observed on 19th to 24th day
Procedure, shortened: as §1

[20] = system: prickly sida (Sida spinosa L.); assay: Test Example 1: foliar treatment, growth inhibition rate, prickly sida; format: in vivo; conditions: 31 g/ha active ingredient, visually observed 17th to 23rd day after application
Procedure, shortened: as §2

## CCCOC(=O)c1c(S(C)(=O)=O)ccc(C(=O)c2cnn(CC)c2OC(=O)SCC)c1Cl [compound 60]
[1]
  Growth inhibition rate (%) Crabgrass: 100%
[2]
  Growth inhibition rate (%) Corn: 0%
[3]
  Growth inhibition rate (%) Prickly sida: 70%
[4]
  Growth inhibition rate (%) redroot pigweed: 80%
[5]
  Growth inhibition rate (%) Rice: 40%
[6]
  Growth inhibition rate (%) Crabgrass: 90%
[7]
  Growth inhibition rate (%) Velvetleaf: 60%
[8]
  Growth inhibition rate (%) Barnyardgrass: 95%
[9]
  Growth inhibition rate (%) Velvetleaf: 70%
[10]
  Growth inhibition rate (%) Greenfoxtail: 60%
[11]
  Growth inhibition rate (%) Corn: 0%
[12]
  Growth inhibition rate (%) Rice: 70%
[13]
  Growth inhibition rate (%) Greenfoxtail: 60%
[14]
  Growth inhibition rate (%) Wheat: 0%
[15]
  Growth inhibition rate (%) redroot pigweed: 95%
[16]
  Growth inhibition rate (%) Barnyardgrass: 100%
[17]
  Growth inhibition rate (%) Soybean: 20%
[18]
  Growth inhibition rate (%) Soybean: 50%
[19]
  Growth inhibition rate (%) Wheat: 0%
[20]
  Growth inhibition rate (%) Prickly sida: 70%

## CCn1ncc(C(=O)c2ccc(S(C)(=O)=O)c(C(=O)OC)c2Cl)c1OC(=O)SC [compound 97]
[1]
  Growth inhibition rate (%) Crabgrass: 100%
[2]
  Growth inhibition rate (%) Corn: 0%
[3]
  Growth inhibition rate (%) Prickly sida: 100%
[4]
  Growth inhibition rate (%) redroot pigweed: 100%
[5]
  Growth inhibition rate (%) Rice: 70%
[6]
  Growth inhibition rate (%) Crabgrass: 70%
[7]
  Growth inhibition rate (%) Velvetleaf: 100%
[8]
  Growth inhibition rate (%) Barnyardgrass: 100%
[9]
  Growth inhibition rate (%) Velvetleaf: 80%
[10]
  Growth inhibition rate (%) Greenfoxtail: 100%
[11]
  Growth inhibition rate (%) Corn: 0%
[12]
  Growth inhibition rate (%) Rice: 60%
[13]
  Growth inhibition rate (%) Greenfoxtail: 100%
[14]
  Growth inhibition rate (%) Wheat: 10%
[15]
  Growth inhibition rate (%) redroot pigweed: 100%
[16]
  Growth inhibition rate (%) Barnyardgrass: 100%
[17]
  Growth inhibition rate (%) Soybean: 10%
[18]
  Growth inhibition rate (%) Soybean: 80%
[19]
  Growth inhibition rate (%) Wheat: 0%
[20]
  Growth inhibition rate (%) Prickly sida: 50%

## CCSC(=O)Oc1c(C(=O)c2ccc(S(C)(=O)=O)c(OCC3CCCO3)c2C)cnn1C (centres unmarked) [compound 211]
[1]
  Growth inhibition rate (%) Crabgrass: 98%
[2]
  Growth inhibition rate (%) Corn: 20%
[3]
  Growth inhibition rate (%) Prickly sida: 70%
[4]
  Growth inhibition rate (%) redroot pigweed: 90%
[5]
  Growth inhibition rate (%) Rice: 50%
[6]
  Growth inhibition rate (%) Crabgrass: 70%
[7]
  Growth inhibition rate (%) Velvetleaf: 40%
[8]
  Growth inhibition rate (%) Barnyardgrass: 70%
[9]
  Growth inhibition rate (%) Velvetleaf: 90%
[10]
  Growth inhibition rate (%) Greenfoxtail: 60%
[11]
  Growth inhibition rate (%) Corn: 0%
[12]
  Growth inhibition rate (%) Rice: 50%
[13]
  Growth inhibition rate (%) Greenfoxtail: 70%
[14]
  Growth inhibition rate (%) Wheat: 0%
[15]
  Growth inhibition rate (%) redroot pigweed: 100%
[16]
  Growth inhibition rate (%) Barnyardgrass: 60%
[17]
  Growth inhibition rate (%) Soybean: 0%
[18]
  Growth inhibition rate (%) Soybean: 98%
[19]
  Growth inhibition rate (%) Wheat: 0%
[20]
  Growth inhibition rate (%) Prickly sida: 20%

## CCSC(=O)Oc1c(C(=O)c2ccc(S(C)(=O)=O)c(C(=O)OC)c2Cl)cnn1C [compound 27]
[1]
  Growth inhibition rate (%) Crabgrass: 95%
[2]
  Growth inhibition rate (%) Corn: 40%
[3]
  Growth inhibition rate (%) Prickly sida: 100%
[4]
  Growth inhibition rate (%) redroot pigweed: 95%
[5]
  Growth inhibition rate (%) Rice: 90%
[6]
  Growth inhibition rate (%) Crabgrass: 80%
[7]
  Growth inhibition rate (%) Velvetleaf: 95%
[8]
  Growth inhibition rate (%) Barnyardgrass: 100%
[9]
  Growth inhibition rate (%) Velvetleaf: 80%
[10]
  Growth inhibition rate (%) Greenfoxtail: 98%
[11]
  Growth inhibition rate (%) Corn: 0%
[12]
  Growth inhibition rate (%) Rice: 80%
[13]
  Growth inhibition rate (%) Greenfoxtail: 100%
[14]
  Growth inhibition rate (%) Wheat: 10%
[15]
  Growth inhibition rate (%) redroot pigweed: 100%
[16]
  Growth inhibition rate (%) Barnyardgrass: 100%
[17]
  Growth inhibition rate (%) Soybean: 0%
[18]
  Growth inhibition rate (%) Soybean: 90%
[19]
  Growth inhibition rate (%) Wheat: 10%
[20]
  Growth inhibition rate (%) Prickly sida: 70%

## COCCOc1c(S(C)(=O)=O)ccc(C(=O)c2cnn(C)c2OC(=O)SC(C)C)c1C [compound 207]
[1]
  Growth inhibition rate (%) Crabgrass: 100%
[2]
  Growth inhibition rate (%) Corn: 0%
[3]
  Growth inhibition rate (%) Prickly sida: 60%
[4]
  Growth inhibition rate (%) redroot pigweed: 100%
[5]
  Growth inhibition rate (%) Rice: 98%
[6]
  Growth inhibition rate (%) Crabgrass: 95%
[7]
  Growth inhibition rate (%) Velvetleaf: 100%
[8]
  Growth inhibition rate (%) Barnyardgrass: 95%
[9]
  Growth inhibition rate (%) Velvetleaf: 100%
[10]
  Growth inhibition rate (%) Greenfoxtail: 100%
[11]
  Growth inhibition rate (%) Corn: 0%
[12]
  Growth inhibition rate (%) Rice: 70%
[13]
  Growth inhibition rate (%) Greenfoxtail: 100%
[14]
  Growth inhibition rate (%) Wheat: 0%
[15]
  Growth inhibition rate (%) redroot pigweed: 100%
[16]
  Growth inhibition rate (%) Barnyardgrass: 100%
[17]
  Growth inhibition rate (%) Soybean: 20%
[18]
  Growth inhibition rate (%) Soybean: 100%
[19]
  Growth inhibition rate (%) Wheat: 0%
[20]
  Growth inhibition rate (%) Prickly sida: 60%

## CCn1ncc(C(=O)c2ccc(S(C)(=O)=O)c(C(=O)OC)c2C)c1OC(=O)SCc1ccccc1 [compound 93]
[1]
  Growth inhibition rate (%) Crabgrass: 90%
[2]
  Growth inhibition rate (%) Corn: 30%
[3]
  Growth inhibition rate (%) Prickly sida: 75%
[4]
  Growth inhibition rate (%) redroot pigweed: 98%
[5]
  Growth inhibition rate (%) Rice: 90%
[6]
  Growth inhibition rate (%) Crabgrass: 80%
[7]
  Growth inhibition rate (%) Velvetleaf: 65%
[8]
  Growth inhibition rate (%) Barnyardgrass: 95%
[9]
  Growth inhibition rate (%) Velvetleaf: 80%
[10]
  Growth inhibition rate (%) Greenfoxtail: 100%
[11]
  Growth inhibition rate (%) Corn: 0%
[12]
  Growth inhibition rate (%) Rice: 70%
[13]
  Growth inhibition rate (%) Greenfoxtail: 95%
[14]
  Growth inhibition rate (%) Wheat: 0%
[15]
  Growth inhibition rate (%) redroot pigweed: 100%
[16]
  Growth inhibition rate (%) Barnyardgrass: 95%
[17]
  Growth inhibition rate (%) Soybean: 0%
[18]
  Growth inhibition rate (%) Soybean: 80%
[19]
  Growth inhibition rate (%) Wheat: 0%
[20]
  Growth inhibition rate (%) Prickly sida: 70%

## CCOc1c(S(C)(=O)=O)ccc(C(=O)c2cnn(CC)c2OC(=O)SCC)c1C [compound 58]
[1]
  Growth inhibition rate (%) Crabgrass: 100%
[2]
  Growth inhibition rate (%) Corn: 0%
[3]
  Growth inhibition rate (%) Prickly sida: 70%
[4]
  Growth inhibition rate (%) redroot pigweed: 90%
[5]
  Growth inhibition rate (%) Rice: 70%
[6]
  Growth inhibition rate (%) Crabgrass: 98%
[7]
  Growth inhibition rate (%) Velvetleaf: 10%
[8]
  Growth inhibition rate (%) Barnyardgrass: 95%
[9]
  Growth inhibition rate (%) Velvetleaf: 100%
[10]
  Growth inhibition rate (%) Greenfoxtail: 70%
[11]
  Growth inhibition rate (%) Corn: 0%
[12]
  Growth inhibition rate (%) Rice: 80%
[13]
  Growth inhibition rate (%) Greenfoxtail: 100%
[14]
  Growth inhibition rate (%) Wheat: 40%
[15]
  Growth inhibition rate (%) redroot pigweed: 90%
[16]
  Growth inhibition rate (%) Barnyardgrass: 60%
[17]
  Growth inhibition rate (%) Soybean: 0%
[18]
  Growth inhibition rate (%) Soybean: 98%
[19]
  Growth inhibition rate (%) Wheat: 0%
[20]
  Growth inhibition rate (%) Prickly sida: 70%
